In patent publication US10941158B2, “Pyrazole ACC inhibitors and uses thereof” (Gilead Apollo, LLC, priority 2015, dated 2021):
≈ marks a conversion by molar mass, not a printed value. Like-named read-outs stand apart in the source and are kept apart here.

Legend:
C. krusei ATCC 6258 = test: Anti-Fungal (Candida) Activity Assay, broth microtiter MIC; type: cell-based; settings: Pichia kudriavzevii, read-out: MIC C. krusei ATCC 6258
Method in brief: (§1)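 Visual 48 h MIC endpoints are reported. Plates followed CLSI M27-A3 in RPMI 1640 plus MOPS.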

C. albicans ATCC 90028 = test: as above; type: cell-based; settings: read-out: MIC C. albicans ATCC 90028
Method in brief: as §1

[1] = test system: C. parapsilosis ATCC 22019; test: as above; type: cell-based; settings: Lodderomyces parapsilosis, read-out: MIC C. parapsilosis ATCC 22019
Method in brief: as §1

Rhizoctonia solani (Rs) = test: Growth inhibition assay of fungal pathogens; type: cell-based; settings: 48 h, read-out: Concentration at 90% Inhibition Rs
Method in brief: (§2)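 Compounds in DMSO tested at final 50, 10, 2 ppm or 2, 0.4, 0.08 ppm. Spores in 17% V8 medium, or 1.5 mm mycelial plugs in ¼ PDB for R. solani, incubated with compound. OD600 and visual ratings at 48 h versus 2% DMSO control gave percent growth inhibition.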

[2] = test system: Phytophthora capsici (Pc); test: Growth inhibition assay of fungal pathogens; type: cell-based; settings: for IC90: Phytophthora capsici, read-out: Concentration at 90% Inhibition Pc
Method in brief: (§3)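 Percent growth inhibition was derived from 48 h OD600 and visual scores relative to 2% DMSO, with blank background subtraction. Fungi were grown from spores in 17% V8 liquid medium, R. solani from 1.5 mm plugs in ¼ PDB, with compound at final 50/10/2 or 2/0.4/0.08 ppm.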

[3] = test system: Fusarium virguliforme (Fv); test: Growth inhibition assay of fungal pathogens; type: cell-based; settings: 48 h
Method in brief: as §3

[4] = test system: Collectotrichum graminicola (Cg); test: Growth inhibition assay of fungal pathogens; type: cell-based; settings: 48 h, read-out: Concentration at 90% Inhibition Cg
Method in brief: as §3

Septoria tritici (St) = test: Growth inhibition assay of fungal pathogens; type: cell-based; settings: for IC90: Zymoseptoria tritici, read-out: Concentration at 90% Inhibition St
Method in brief: as §3

Botrtyis cinerea (Bc) = test: Growth inhibition assay of fungal pathogens; type: cell-based; settings: 48 h, read-out: Concentration at 90% Inhibition Bc
Method in brief: as §2

Diplodia maydis (Dm) = test: Growth inhibition assay of fungal pathogens; type: cell-based; settings: Stenocarpella maydis, 48 h, read-out: Concentration at 90% Inhibition Dm
Method in brief: as §2

[5] = test system: Fusarium moniliforme (Fm); test: Growth inhibition assay of fungal pathogens; type: cell-based; settings: for IC90: Fusarium verticillioides, 48 h, read-out: Concentration at 90% Inhibition Fm
Method in brief: as §2

human (hACC2) ACC2 = human (hACC2) ACC2 (Homo sapiens, UniProt O00763); test: In vitro Acetyl-CoA Carboxylase (ACC) inhibition assay (ADP-Glo), hACC2; type: biochemical
Experimental: The detailed procedure is as follows. […] 10 μL ADP glo reagent was added. […] 20 μL kinase detection reagent was added.
“NA” stands for “not assayed.”

fungal (fACC2) ACC2 = fungal (fACC2) ACC2 (UniProt Q00955); settings: read-out: fACC2 IC50; fungal ACC2, ADP-Glo
[6] = read-out: Concentration at 90% Inhibition Fv, Table 4a, 48 hours
[7] = read-out: Concentration at 90% Inhibition Fv, Table 4b, 48 hours

fungal (fACC2) ACC2, sequence (Q00955 whole entry): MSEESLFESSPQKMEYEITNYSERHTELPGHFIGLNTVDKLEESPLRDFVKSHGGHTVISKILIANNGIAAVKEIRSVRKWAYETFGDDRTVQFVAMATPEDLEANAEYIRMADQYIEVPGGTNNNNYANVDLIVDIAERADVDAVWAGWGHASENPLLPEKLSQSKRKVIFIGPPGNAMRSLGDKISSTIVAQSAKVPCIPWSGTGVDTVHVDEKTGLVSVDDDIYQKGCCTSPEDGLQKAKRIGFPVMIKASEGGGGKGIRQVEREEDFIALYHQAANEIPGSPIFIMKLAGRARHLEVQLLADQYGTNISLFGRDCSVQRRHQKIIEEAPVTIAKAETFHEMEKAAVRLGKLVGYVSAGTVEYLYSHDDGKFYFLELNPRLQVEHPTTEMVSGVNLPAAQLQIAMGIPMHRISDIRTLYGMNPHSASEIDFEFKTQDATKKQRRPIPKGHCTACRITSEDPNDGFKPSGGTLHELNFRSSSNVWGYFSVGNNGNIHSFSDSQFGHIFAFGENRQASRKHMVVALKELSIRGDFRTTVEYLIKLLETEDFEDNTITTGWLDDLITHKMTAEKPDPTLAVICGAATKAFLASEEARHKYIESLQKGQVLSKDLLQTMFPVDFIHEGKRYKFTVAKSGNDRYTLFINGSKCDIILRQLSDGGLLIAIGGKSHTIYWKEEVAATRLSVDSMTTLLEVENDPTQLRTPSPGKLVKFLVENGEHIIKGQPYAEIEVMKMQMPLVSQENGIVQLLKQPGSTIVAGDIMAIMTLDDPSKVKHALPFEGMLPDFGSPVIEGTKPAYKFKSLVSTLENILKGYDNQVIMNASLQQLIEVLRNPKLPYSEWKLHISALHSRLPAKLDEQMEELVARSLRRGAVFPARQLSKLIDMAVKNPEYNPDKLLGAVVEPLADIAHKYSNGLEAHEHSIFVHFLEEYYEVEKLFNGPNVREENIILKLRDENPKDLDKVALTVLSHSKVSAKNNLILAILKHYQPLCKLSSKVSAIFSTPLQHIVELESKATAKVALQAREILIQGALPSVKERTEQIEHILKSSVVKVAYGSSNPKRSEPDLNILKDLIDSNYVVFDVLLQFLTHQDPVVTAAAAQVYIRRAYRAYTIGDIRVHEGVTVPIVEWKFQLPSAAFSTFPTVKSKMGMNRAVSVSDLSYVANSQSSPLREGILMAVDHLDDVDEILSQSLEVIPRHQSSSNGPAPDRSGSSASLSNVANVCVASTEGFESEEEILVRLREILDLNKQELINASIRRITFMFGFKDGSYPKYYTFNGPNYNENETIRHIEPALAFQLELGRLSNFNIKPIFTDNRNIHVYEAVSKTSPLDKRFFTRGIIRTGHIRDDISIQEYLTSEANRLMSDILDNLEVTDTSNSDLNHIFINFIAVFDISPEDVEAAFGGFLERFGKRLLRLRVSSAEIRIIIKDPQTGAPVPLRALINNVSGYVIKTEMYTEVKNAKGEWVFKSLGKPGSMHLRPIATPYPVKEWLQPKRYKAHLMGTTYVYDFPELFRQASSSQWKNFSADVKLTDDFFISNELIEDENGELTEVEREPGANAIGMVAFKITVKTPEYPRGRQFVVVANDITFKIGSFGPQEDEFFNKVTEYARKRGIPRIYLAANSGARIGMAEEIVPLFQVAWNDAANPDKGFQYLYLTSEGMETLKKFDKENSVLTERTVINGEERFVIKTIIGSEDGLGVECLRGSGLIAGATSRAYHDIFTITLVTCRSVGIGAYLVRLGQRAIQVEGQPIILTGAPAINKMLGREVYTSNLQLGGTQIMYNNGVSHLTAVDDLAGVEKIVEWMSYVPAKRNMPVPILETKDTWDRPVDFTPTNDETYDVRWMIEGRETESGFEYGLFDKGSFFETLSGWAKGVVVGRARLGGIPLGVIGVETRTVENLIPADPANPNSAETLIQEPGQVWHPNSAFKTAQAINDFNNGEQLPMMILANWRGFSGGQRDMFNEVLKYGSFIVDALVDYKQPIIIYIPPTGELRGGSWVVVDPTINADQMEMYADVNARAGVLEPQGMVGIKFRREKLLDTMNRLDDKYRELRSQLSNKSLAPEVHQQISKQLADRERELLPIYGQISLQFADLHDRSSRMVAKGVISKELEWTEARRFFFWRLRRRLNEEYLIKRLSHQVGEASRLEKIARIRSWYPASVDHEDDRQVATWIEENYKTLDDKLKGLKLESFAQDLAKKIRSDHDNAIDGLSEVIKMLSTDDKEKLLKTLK
human (hACC2) ACC2, sequence (O00763 whole entry): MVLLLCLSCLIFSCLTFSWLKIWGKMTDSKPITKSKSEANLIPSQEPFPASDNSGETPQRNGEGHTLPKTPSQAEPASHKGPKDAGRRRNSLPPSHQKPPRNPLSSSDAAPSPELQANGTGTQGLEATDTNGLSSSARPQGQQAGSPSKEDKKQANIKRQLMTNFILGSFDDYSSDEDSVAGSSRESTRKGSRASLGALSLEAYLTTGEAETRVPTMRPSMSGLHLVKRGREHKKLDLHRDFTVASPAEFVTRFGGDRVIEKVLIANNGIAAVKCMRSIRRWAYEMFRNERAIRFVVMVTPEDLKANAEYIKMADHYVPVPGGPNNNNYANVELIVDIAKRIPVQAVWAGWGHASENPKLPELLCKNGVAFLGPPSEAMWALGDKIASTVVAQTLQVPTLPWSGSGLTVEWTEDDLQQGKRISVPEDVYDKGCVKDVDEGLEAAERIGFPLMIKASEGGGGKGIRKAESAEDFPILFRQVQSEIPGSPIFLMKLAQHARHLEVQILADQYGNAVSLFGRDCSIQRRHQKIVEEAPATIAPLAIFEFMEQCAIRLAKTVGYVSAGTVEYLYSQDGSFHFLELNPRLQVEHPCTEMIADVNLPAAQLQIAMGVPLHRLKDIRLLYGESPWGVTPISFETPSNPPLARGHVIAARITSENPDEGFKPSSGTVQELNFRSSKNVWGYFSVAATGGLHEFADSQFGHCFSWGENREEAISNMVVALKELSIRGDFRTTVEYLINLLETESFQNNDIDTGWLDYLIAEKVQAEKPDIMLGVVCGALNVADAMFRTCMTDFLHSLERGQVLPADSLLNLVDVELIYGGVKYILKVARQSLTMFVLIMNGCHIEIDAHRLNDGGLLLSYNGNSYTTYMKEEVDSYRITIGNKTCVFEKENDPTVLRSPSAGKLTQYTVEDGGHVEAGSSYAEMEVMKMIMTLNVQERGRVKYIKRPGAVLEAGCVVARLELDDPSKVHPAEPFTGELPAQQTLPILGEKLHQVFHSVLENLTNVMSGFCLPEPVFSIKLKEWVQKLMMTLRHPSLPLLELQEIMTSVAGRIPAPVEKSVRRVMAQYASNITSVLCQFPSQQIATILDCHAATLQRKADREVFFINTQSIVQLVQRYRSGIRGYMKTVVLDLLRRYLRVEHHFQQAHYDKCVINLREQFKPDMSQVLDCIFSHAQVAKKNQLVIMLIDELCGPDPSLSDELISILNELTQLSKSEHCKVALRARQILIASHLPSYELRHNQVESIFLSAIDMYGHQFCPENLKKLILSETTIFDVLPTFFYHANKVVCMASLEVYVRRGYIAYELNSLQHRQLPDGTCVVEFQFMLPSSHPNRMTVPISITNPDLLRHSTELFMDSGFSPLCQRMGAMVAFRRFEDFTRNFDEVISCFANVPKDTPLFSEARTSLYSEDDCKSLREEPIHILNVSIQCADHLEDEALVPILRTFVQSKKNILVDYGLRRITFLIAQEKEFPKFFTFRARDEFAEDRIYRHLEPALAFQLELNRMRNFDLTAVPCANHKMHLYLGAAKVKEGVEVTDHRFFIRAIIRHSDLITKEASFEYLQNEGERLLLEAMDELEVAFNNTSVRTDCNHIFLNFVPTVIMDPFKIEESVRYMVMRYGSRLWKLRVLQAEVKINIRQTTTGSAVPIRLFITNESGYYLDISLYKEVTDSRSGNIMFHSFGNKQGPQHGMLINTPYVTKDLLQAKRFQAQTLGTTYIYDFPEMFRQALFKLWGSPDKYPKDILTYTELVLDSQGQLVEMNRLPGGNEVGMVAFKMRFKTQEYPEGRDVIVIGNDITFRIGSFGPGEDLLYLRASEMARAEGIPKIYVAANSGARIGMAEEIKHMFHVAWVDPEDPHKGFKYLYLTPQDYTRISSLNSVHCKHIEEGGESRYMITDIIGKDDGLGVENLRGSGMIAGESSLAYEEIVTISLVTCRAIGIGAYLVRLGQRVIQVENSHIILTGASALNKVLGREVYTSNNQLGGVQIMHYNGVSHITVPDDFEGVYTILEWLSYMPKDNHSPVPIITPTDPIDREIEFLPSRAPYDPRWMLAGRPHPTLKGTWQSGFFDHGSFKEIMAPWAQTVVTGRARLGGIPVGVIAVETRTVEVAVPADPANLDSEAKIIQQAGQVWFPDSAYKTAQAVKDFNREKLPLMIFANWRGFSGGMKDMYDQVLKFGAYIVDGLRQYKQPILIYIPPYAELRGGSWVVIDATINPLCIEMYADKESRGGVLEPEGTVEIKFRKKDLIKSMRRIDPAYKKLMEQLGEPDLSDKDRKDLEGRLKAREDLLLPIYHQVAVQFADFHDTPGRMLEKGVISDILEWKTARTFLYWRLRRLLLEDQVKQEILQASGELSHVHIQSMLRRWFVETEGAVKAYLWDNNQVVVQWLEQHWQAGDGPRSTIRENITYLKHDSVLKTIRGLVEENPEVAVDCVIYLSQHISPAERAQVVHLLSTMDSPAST

| Structure (SMILES) | IC90 (Rhizoctonia solani (Rs); Table 4a) [µg/mL] | IC90 (Rhizoctonia solani (Rs); Table 4b) [µg/mL] | IC90 ([4]; Table 4a) [µg/mL] | IC90 ([4]; Table 4b) [µg/mL] | IC90 (Botrtyis cinerea (Bc); Table 4a) [µg/mL] | IC90 (Botrtyis cinerea (Bc); Table 4b) [µg/mL] | IC90 (Diplodia maydis (Dm); Table 4a) [µg/mL] | IC90 (Diplodia maydis (Dm); Table 4b) [µg/mL] | IC50 (human (hACC2) ACC2) [nM] | IC50 (fungal (fACC2) ACC2) [nM] | MIC (C. krusei ATCC 6258; ATCC6258, 48 h) [µg/mL] | MIC (C. albicans ATCC 90028; ATCC90028, 48 h) [µg/mL] | MIC ([1]; ATCC22019, 48 h) [µg/mL] | IC90 ([2]; 48 h, Table 4a) [µg/mL] | IC90 ([2]; 48 h, Table 4b) [µg/mL] | IC90 [3, 6] [µg/mL] | IC90 [3, 7] [µg/mL] | IC90 (Septoria tritici (St); 48 h, Table 4a) [µg/mL] | IC90 (Septoria tritici (St); 48 h, Table 4b) [µg/mL] | IC90 [5] [µg/mL] | further results |
| --- | --- | --- | --- | --- | --- | --- | --- | --- | --- | --- | --- | --- | --- | --- | --- | --- | --- | --- | --- | --- | --- |
| COc1ccc(F)cc1[C@H](Cn1c(=O)n(CC(=O)N2CCCC2)c(=O)c2c(C)c(-n3cccn3)sc21)OC(C)C [Compound I-28, (R)-1-(2-(5-fluoro-2-methoxyphenyl)-2-isopropoxyethyl)-5-methyl-3-(2-oxo-2-(pyrrolidin-1-yl)ethyl)-6-(1H-pyrazol-1-yl)thieno[2,3-d]pyrimidine-2,4(1H,3H)-dione] | 10 (≈ 17.6 µM) | 2 (≈ 3.51 µM) | > 50 | 10 (≈ 17.6 µM) | 2 (≈ 3.51 µM) | 2 (≈ 3.51 µM) | > 50 | > 50 | 10 to 40 | 0.6 to 3 | – | – | – | – | – | – | – | – | – | – | MIC (C. krusei ATCC 6258; ATCC6258, 3 replicates, MIC recorded at 48 h): 0.25 to 1 µg/mL (≈ 0.439 to 1.76 µM); MIC (C. albicans ATCC 90028; ATCC90028, 3 replicates, MIC recorded at 48 h): 0.25 to 1 µg/mL (≈ 0.439 to 1.76 µM); MIC ([1]; ATCC22019, 3 replicates, MIC recorded at 48 h): 0.25 to 1 µg/mL (≈ 0.439 to 1.76 µM); IC90 ([2]; Table 4a, 48 hours): > 50 µg/mL; Concentration at 90% Inhibition Pc ([2]; Table 4b, 48 hours): D (“D” provided a compound concentration of >50 ppm at 90% inhibition of fungal pathogens); IC90 ([3]; Table 4a, 48 hours, read-out: Concentration at 90% Inhibition Fv): 2 µg/mL (≈ 3.51 µM); IC90 ([3]; Table 4b, 48 hours, read-out: Concentration at 90% Inhibition Fv): 2 µg/mL (≈ 3.51 µM); Concentration at 90% Inhibition St (Septoria tritici (St); Table 4b, 48 hours): D (“D” provided a compound concentration of >50 ppm at 90% inhibition of fungal pathogens); IC90 (Septoria tritici (St); Table 4a, 48 hours): > 50 µg/mL; IC90 ([5]; Table 4a, 48 hours): 0.4 µg/mL (≈ 0.702 µM); IC90 ([5]; Table 4b, 48 hours): 0.4 µg/mL (≈ 0.702 µM) |
| COc1ccc(F)cc1[C@H](Cn1c(=O)n(C(C)C(=O)NC(C)C)c(=O)c2c(C)c(-n3cccn3)sc21)OC(C)C (stereo partly drawn) [Compound I-29, 2-(1-((R)-2-(5-fluoro-2-methoxyphenyl)-2-isopropoxy-ethyl)-5-methyl-2,4-dioxo-6-(1H-pyrazol-1-yl)-1,4-dihydrothieno[2,3-d]pyrimidin-3(2H)-yl)-N-isopropylpropanamide] | 2 (≈ 3.5 µM) | 2 (≈ 3.5 µM) | 2 (≈ 3.5 µM) | 2 (≈ 3.5 µM) | 2 (≈ 3.5 µM) | 2 (≈ 3.5 µM) | 2 (≈ 3.5 µM) | 2 (≈ 3.5 µM) | 10 to 40 | 0.6 to 3 | 2.1 to 4 (≈ 3.67 to 7 µM) | 1.1 to 2 (≈ 1.92 to 3.5 µM) | > 4.1 | > 50 | > 50 | 2 (≈ 3.5 µM) | 2 (≈ 3.5 µM) | > 50 | > 50 | 0.4 (≈ 0.7 µM) | Concentration at 90% Inhibition Fm ([5]; Table 4b, 48 hours): A (“A” provided a compound concentration of 0.4 ppm at 90% inhibition of fungal pathogens) |
| COc1ccc(F)cc1[C@H](Cn1c(=O)n([C@H](C)C(=O)NC(C)C)c(=O)c2c(C)c(-n3cccn3)sc21)OC(C)C [Compound I-30, (R)-2-(1-((R)-2-(5-fluoro-2-methoxyphenyl)-2-isopropoxyethyl)-5-methyl-2,4-dioxo-6-(1H-pyrazol-1-yl)-1,4-dihydrothieno[2,3-d]pyrimidin-3(2H)-yl)-N-isopropylpropanamide] | 2 (≈ 3.5 µM) | 2 (≈ 3.5 µM) | 2 (≈ 3.5 µM) | 2 (≈ 3.5 µM) | 2 (≈ 3.5 µM) | 2 (≈ 3.5 µM) | 2 (≈ 3.5 µM) | 2 (≈ 3.5 µM) | 3 to 10 | 0.6 to 3 | 0.25 to 1 (≈ 0.437 to 1.75 µM) | 0.25 to 1 (≈ 0.437 to 1.75 µM) | 0.25 to 1 (≈ 0.437 to 1.75 µM) | > 50 | > 50 | 0.4 (≈ 0.7 µM) | 0.4 (≈ 0.7 µM) | > 50 | > 50 | 0.4 (≈ 0.7 µM) | Concentration at 90% Inhibition Fm ([5]; Table 4b, 48 hours): A (“A” provided a compound concentration of 0.4 ppm at 90% inhibition of fungal pathogens) |
